≈ marks a conversion by molar mass, not a printed value. Where two headings read alike, the source gives them in different places.
How the values were obtained:
[1] = molecular target: T1, Phosphodiesterase 3B (Homo sapiens, UniProt Q13370); experiment: Off-target screening (CEREP); format: biochemical; details: read-out: percent inhibition
T1 construct: purchased Eurofins CEREP SA
Description: (§1) Supplementary Table 1 │ Off-target activity screening f or MCP compou nds […]
(§2) The assays given in the table above were conducted at Eurofins CEREP S A (Celle-Lévescault, France) and were run as single point measurements in duplicates in the presence of 10 µ M of the test compound and reported as percent inhibition of the radioligand signal or control enzymatic activity. n.d., not

[2] = molecular target: T2, Matrix metalloprotease-9 (Homo sapiens, UniProt P14780); experiment: Off-target screening (CEREP); format: biochemical; details: read-out: percent inhibition
T2 construct: purchased Eurofins CEREP SA
Description: as §1, §2

[3] = test system: HIV-1 protease; experiment: Off-target screening (CEREP); format: biochemical; details: 10 µM, duplicates
Description: as §1, §2

[4] = molecular target: T3, Acetylcholinesterase (Homo sapiens, UniProt P22303); experiment: Off-target screening (CEREP); format: biochemical; details: read-out: percent inhibition
T3 construct: purchased Eurofins CEREP SA
Description: as §1, §2

[5] = molecular target: T4, GSK-3A (Homo sapiens, UniProt P49840); experiment: Off-target screening (CEREP); format: biochemical; details: read-out: percent inhibition
T4 construct: purchased Eurofins CEREP SA
Description: as §1, §2

[6] = molecular target: T5, Cyclooxygenase 2 (Homo sapiens, UniProt P35354); experiment: Off-target screening (CEREP); format: biochemical; details: read-out: percent inhibition
T5 construct: purchased Eurofins CEREP SA
T5 sequence (P35354 18-604): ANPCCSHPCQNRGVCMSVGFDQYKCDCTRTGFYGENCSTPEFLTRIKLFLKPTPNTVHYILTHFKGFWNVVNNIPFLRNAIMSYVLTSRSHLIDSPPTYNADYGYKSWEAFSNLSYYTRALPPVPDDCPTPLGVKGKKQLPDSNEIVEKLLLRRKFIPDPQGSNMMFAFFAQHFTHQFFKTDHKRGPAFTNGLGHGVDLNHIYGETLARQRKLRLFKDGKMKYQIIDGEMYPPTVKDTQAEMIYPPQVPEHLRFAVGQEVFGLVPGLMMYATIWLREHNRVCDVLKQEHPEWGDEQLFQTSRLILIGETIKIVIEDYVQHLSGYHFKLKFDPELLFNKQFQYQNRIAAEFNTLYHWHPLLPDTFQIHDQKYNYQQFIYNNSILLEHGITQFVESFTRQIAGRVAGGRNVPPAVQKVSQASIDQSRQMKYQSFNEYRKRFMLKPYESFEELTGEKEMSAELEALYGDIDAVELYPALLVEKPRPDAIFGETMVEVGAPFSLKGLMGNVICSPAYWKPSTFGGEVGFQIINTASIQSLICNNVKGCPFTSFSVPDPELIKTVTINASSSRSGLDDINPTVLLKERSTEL
Description: as §1, §2

[7] = molecular target: T6, Monoamine oxidase-A (Homo sapiens, UniProt P21397); experiment: Off-target screening (CEREP); format: biochemical; details: read-out: percent inhibition
T6 construct: purchased Eurofins CEREP SA
T6 sequence (P21397 1-527): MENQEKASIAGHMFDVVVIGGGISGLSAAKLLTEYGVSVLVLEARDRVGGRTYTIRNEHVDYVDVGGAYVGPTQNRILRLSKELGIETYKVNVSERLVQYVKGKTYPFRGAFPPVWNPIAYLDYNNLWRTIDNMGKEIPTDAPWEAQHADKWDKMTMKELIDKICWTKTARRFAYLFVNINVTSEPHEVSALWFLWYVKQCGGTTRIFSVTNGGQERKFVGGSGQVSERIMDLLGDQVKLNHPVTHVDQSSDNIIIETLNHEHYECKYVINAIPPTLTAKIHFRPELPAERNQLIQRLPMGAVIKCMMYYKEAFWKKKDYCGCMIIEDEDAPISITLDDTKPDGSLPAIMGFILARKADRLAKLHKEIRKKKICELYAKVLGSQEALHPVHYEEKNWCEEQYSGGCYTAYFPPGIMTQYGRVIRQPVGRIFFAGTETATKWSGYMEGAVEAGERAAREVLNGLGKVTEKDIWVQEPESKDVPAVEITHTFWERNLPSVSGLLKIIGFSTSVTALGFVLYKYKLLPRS
Description: as §1, §2

[8] = molecular target: T7, Phosphodiesterase 4D2 (Homo sapiens, UniProt Q08499); experiment: Off-target screening (CEREP); format: biochemical; details: read-out: percent inhibition
T7 construct: purchased Eurofins CEREP SA
Description: as §1, §2

[9] = molecular target: T8, CDK2 (Homo sapiens, UniProt P24941); experiment: Off-target screening (CEREP); format: biochemical; details: read-out: percent inhibition
T8 construct: purchased Eurofins CEREP SA
Description: as §1, §2

[10] = molecular target: T9, Angiotensin converting enzyme (Homo sapiens, UniProt P12821); experiment: Off-target screening (CEREP); format: biochemical; details: read-out: percent inhibition
T9 construct: purchased Eurofins CEREP SA
Description: as §1, §2

[11] = test system: GABA-A (benzodiazapine binding site); experiment: Off-target screening (CEREP); set-up: species or system rat; details: 10 µM, duplicates
Description: as §1, §2

[12] = test system: K. pneumoniae ATCC 700603; experiment: microbe, parasite or virus in culture; details: for MIC: Klebsiella pneumoniae; for RO7223280 MIC 100%: K. pneumoniae ATCC 700603, read at 100%
Method in brief: (§3)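 MIC was taken as the lowest concentration without visible growth, or past which OD600 no longer fell. Testing followed CLSI M07 and M100 broth microdilution, using 0.5 McFarland-derived inocula in CAMHB (LB for A. baylyi isolates).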

[13] = test system: P. aeruginosa ATCC 27853; experiment: microbe, parasite or virus in culture; details: for MIC: Pseudomonas aeruginosa; for RO7223280 MIC 100%: P. aeruginosa ATCC 27853, read at 100%
Method in brief: as §3

[14] = GSH adduct; format: in vitro ADME

T7 sequence (Q08499 303-809 limits assumed): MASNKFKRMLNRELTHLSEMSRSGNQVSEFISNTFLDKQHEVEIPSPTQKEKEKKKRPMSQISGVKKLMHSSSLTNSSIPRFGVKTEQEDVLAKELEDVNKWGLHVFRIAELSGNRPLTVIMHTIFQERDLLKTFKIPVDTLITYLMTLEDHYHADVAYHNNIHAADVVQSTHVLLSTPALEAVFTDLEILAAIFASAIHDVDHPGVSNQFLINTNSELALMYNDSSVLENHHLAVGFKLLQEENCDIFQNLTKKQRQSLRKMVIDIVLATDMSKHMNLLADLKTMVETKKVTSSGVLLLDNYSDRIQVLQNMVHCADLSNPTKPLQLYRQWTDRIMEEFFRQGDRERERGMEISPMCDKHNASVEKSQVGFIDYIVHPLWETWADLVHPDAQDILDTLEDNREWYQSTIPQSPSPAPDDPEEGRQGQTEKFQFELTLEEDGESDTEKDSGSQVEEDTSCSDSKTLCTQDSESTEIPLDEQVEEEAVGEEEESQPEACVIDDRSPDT
T3 sequence (P22303 32-614): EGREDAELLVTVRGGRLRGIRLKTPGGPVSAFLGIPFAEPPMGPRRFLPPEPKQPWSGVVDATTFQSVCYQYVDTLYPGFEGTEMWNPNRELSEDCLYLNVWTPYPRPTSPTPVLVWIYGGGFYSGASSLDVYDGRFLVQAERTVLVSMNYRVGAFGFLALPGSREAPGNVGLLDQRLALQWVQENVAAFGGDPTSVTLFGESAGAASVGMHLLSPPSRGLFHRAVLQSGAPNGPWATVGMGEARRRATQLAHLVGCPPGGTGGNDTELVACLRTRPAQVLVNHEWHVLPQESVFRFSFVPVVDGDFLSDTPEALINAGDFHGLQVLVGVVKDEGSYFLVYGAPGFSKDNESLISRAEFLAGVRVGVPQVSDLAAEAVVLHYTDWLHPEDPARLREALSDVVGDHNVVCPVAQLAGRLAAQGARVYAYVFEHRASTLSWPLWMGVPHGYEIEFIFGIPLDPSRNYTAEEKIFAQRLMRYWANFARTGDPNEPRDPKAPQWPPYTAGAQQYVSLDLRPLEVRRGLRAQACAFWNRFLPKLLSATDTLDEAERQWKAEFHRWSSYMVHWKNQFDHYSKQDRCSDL
T2 sequence (P14780 94-707): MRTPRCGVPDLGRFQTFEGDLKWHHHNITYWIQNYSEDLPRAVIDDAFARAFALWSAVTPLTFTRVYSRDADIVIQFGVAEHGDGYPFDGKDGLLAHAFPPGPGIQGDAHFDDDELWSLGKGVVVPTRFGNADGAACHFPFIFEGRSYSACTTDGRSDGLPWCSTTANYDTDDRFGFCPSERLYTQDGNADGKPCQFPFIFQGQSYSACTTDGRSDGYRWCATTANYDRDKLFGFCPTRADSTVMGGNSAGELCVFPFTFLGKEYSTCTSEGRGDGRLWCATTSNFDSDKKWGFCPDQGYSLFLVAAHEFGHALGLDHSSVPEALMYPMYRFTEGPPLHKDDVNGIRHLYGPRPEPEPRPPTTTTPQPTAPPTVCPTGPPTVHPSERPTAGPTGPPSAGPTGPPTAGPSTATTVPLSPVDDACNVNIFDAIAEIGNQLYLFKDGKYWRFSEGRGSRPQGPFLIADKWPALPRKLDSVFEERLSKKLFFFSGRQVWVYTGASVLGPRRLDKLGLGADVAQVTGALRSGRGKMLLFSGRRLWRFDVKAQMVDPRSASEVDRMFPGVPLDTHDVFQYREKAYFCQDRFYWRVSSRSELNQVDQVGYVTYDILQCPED
T4 sequence (P49840 whole entry): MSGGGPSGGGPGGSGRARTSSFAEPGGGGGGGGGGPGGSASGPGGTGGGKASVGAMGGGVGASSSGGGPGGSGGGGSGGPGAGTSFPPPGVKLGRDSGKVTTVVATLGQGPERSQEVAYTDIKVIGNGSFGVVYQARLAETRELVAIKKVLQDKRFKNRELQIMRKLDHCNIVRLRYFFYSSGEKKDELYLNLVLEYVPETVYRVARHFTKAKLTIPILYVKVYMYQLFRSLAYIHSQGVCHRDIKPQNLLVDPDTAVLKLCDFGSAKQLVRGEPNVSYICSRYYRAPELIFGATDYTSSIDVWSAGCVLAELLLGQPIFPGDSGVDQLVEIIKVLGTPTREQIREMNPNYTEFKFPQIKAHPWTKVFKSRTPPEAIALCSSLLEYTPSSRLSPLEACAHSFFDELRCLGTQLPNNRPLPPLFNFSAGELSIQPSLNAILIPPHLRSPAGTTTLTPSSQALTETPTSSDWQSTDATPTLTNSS
T9 sequence (P12821 30-1306): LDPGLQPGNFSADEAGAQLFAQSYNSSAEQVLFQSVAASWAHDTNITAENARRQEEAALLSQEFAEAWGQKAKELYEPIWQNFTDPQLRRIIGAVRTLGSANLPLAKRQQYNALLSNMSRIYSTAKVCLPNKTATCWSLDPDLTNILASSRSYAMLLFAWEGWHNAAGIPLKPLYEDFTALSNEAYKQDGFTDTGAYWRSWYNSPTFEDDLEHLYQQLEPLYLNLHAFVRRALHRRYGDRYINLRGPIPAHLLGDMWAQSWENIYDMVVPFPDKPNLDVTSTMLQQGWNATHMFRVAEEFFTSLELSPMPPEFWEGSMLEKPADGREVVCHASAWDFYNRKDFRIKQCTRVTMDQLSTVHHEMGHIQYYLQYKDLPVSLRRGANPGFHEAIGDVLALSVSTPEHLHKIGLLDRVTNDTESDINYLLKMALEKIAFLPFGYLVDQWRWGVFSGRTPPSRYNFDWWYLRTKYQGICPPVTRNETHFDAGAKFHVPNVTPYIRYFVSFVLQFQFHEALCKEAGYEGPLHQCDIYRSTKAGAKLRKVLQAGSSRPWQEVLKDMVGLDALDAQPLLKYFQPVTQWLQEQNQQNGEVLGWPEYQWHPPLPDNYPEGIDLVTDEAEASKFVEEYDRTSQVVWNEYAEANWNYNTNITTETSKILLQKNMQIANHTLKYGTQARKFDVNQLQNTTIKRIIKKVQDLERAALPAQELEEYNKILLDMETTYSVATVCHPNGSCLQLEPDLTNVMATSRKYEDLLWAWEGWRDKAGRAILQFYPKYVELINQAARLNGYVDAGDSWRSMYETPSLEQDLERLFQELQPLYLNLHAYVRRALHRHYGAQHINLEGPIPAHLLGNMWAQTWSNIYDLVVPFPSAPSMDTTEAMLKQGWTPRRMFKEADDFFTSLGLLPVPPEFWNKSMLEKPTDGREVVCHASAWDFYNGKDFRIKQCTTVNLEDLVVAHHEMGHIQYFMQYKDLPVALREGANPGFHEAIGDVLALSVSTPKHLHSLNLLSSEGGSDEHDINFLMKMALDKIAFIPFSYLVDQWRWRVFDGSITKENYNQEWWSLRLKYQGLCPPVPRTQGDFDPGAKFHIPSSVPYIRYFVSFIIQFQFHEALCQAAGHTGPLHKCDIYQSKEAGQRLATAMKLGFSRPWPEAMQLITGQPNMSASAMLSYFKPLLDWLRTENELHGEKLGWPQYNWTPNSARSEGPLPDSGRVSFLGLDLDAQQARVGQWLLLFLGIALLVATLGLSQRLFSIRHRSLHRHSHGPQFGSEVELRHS
T1 sequence (Q13370 whole entry): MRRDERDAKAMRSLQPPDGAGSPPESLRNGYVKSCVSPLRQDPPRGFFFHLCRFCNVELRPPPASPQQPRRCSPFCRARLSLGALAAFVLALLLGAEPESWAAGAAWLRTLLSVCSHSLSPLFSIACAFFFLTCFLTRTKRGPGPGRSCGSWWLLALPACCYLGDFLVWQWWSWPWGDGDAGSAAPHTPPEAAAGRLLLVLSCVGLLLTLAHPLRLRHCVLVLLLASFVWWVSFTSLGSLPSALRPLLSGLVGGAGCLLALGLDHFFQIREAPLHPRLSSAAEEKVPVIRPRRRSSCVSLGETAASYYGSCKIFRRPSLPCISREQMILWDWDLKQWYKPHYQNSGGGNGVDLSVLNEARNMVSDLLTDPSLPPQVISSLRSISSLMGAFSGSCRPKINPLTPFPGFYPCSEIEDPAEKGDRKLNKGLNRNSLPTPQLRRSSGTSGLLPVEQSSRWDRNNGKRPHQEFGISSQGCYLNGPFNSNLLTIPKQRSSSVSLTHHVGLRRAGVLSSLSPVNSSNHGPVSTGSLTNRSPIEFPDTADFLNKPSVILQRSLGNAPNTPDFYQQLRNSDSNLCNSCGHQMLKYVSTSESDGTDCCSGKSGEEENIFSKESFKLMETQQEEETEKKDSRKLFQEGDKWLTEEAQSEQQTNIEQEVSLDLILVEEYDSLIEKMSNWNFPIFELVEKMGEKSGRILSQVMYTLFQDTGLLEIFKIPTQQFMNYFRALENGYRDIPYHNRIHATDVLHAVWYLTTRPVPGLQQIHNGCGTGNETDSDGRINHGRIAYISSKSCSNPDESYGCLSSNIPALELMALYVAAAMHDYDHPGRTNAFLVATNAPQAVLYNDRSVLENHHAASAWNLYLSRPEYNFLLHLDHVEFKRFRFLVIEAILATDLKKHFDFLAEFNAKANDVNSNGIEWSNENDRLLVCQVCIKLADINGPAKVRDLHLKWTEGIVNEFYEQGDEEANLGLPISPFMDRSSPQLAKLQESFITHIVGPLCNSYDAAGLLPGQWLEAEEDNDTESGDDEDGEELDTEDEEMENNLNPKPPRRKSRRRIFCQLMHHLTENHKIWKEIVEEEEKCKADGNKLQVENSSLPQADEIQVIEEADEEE

Question: With `CN1C(=O)[C@H](CCCCN)NC(=O)[C@H](CCCN)NCc2cccnc2Sc2c(Cl)ccc(-c3ccc(C(=O)O)cc3)c2CNC(=O)[C@@H]1Cc1c[nH]c2ccccc12` [RO7202110] as the compound, how does the inhibition at 10 µM ([1]; 10 µM, duplicates) read?
Answer: 2%

Question: What about the inhibition at 10 µM ([2]; 10 µM, duplicates) of the same compound?
Answer: 13%

Question: And the percent inhibition [3]?
Answer: 12%

Question: And the inhibition at 10 µM ([4]; 10 µM, duplicates)?
Answer: 40%

Question: What about the inhibition at 10 µM ([5]; 10 µM, duplicates) of the same compound?
Answer: 22%

Question: What about the inhibition at 10 µM ([6]; 10 µM, duplicates) of the same compound?
Answer: 12%

Question: And the inhibition at 10 µM ([7]; 10 µM, duplicates)?
Answer: 11%

Question: What about the inhibition at 10 µM ([8]; 10 µM, duplicates) of the same compound?
Answer: -3%

Question: What about the inhibition at 10 µM ([9]; 10 µM, duplicates) of the same compound?
Answer: 17%

Question: And the inhibition at 10 µM ([10]; 10 µM, duplicates)?
Answer: 3%

Question: What about the percent inhibition [11] of the same compound?
Answer: 14%

Question: And the MIC ([12]; ATCC700603, CAMHB, mode of at least three replicates (RO7036668 one replicate))?
Answer: > 64 µg/mL

Question: What about the “MIC 100%” value ([12]; Study LGC294355) of the same compound?
Answer: >64 µg/mL

Question: What about the “MIC 100%” value ([12]; Study LGC295147) of the same compound?
Answer: >64 µg/mL

Question: What about the “MIC 100%” value ([12]; Study LGC299544) of the same compound?
Answer: >64 µg/mL

Question: And the “MIC 100%” value ([12]; Study LGC308175)?
Answer: >64 µg/mL

Question: And the MIC ([13]; ATCC27853, CAMHB, mode of at least three replicates (RO7036668 one replicate))?
Answer: > 64 µg/mL

Question: What about the GSH adduct [14] of the same compound?
Answer: Clean

Question: With `CN1C(=O)[C@H](CCCCN)NC(=O)[C@H](CCCN)NCc2cccnc2Sc2c(Cl)ccc(Cl)c2CNC(=O)[C@@H]1Cc1c[nH]c2ccccc12` [RO7075573] as the compound, how does the inhibition at 10 µM [1] read?
Answer: -3%

Question: And the inhibition at 10 µM [2]?
Answer: -31%

Question: What about the percent inhibition [3] of the same compound?
Answer: -4%

Question: What about the inhibition at 10 µM [4] of the same compound?
Answer: 4%

Question: What about the inhibition at 10 µM [5] of the same compound?
Answer: -1%

Question: And the inhibition at 10 µM [6]?
Answer: -46%

Question: And the inhibition at 10 µM [7]?
Answer: 3%

Question: And the inhibition at 10 µM [8]?
Answer: 0%

Question: What about the inhibition at 10 µM [9] of the same compound?
Answer: -5%

Question: And the inhibition at 10 µM [10]?
Answer: -7%

Question: And the percent inhibition [11]?
Answer: -20%

Question: What about the MIC ([12]; ATCC700603) of the same compound?
Answer: > 64 µg/mL

Question: What about the “MIC 100%” value ([12]; Study LGC281440) of the same compound?
Answer: 32 µg/mL (≈ 43.3 µM)

Question: And the “MIC 100%” value ([12]; Study LGC282160)?
Answer: >64 µg/mL

Question: And the “MIC 100%” value ([12]; Study LGC284879)?
Answer: >64 µg/mL

Question: And the “MIC 100%” value ([12]; Study LGC285582)?
Answer: >64 µg/mL

Question: What about the “MIC 100%” value ([12]; Study LGC286210) of the same compound?
Answer: >64 µg/mL

Question: What about the “MIC 100%” value ([12]; Study LGC293598) of the same compound?
Answer: >64 µg/mL

Question: What about the “MIC 100%” value ([12]; Study LGC294355) of the same compound?
Answer: >64 µg/mL

Question: What about the “MIC 100%” value ([12]; Study LGC295147) of the same compound?
Answer: >64 µg/mL

Question: What about the “MIC 100%” value ([12]; Study LGC296813) of the same compound?
Answer: >64 µg/mL

Question: And the “MIC 100%” value ([12]; Study LGC299544)?
Answer: >64 µg/mL

Question: And the “MIC 100%” value ([12]; Study LGC301026)?
Answer: >64 µg/mL

Question: And the “MIC 100%” value ([12]; Study LGC308175)?
Answer: >64 µg/mL

Question: What about the “MIC 100%” value ([12]; Study ROC010) of the same compound?
Answer: >64 µg/mL

Question: What about the “MIC 100%” value ([12]; Study ROC012) of the same compound?
Answer: >64 µg/mL

Question: And the MIC ([13]; ATCC27853)?
Answer: > 64 µg/mL

Question: And the “MIC 100%” value ([13]; Study LGC281440)?
Answer: 64 µg/mL (≈ 86.5 µM)

Question: And the “MIC 100%” value ([13]; Study LGC282160)?
Answer: >64 µg/mL

Question: What about the “MIC 100%” value ([13]; Study LGC284879) of the same compound?
Answer: >64 µg/mL

Question: What about the “MIC 100%” value ([13]; Study LGC285582) of the same compound?
Answer: >64 µg/mL

Question: What about the “MIC 100%” value ([13]; Study LGC286210) of the same compound?
Answer: 64 µg/mL (≈ 86.5 µM)

Question: And the “MIC 100%” value ([13]; Study LGC293598)?
Answer: >64 µg/mL

Question: What about the “MIC 100%” value ([13]; Study LGC294355) of the same compound?
Answer: >64 µg/mL

Question: And the “MIC 100%” value ([13]; Study LGC295147)?
Answer: 64 µg/mL (≈ 86.5 µM)

Question: And the “MIC 100%” value ([13]; Study LGC296813)?
Answer: 64 µg/mL (≈ 86.5 µM)

Question: What about the “MIC 100%” value ([13]; Study LGC299544) of the same compound?
Answer: >64 µg/mL

Question: And the “MIC 100%” value ([13]; Study LGC301026)?
Answer: >64 µg/mL

Question: And the “MIC 100%” value ([13]; Study LGC308175)?
Answer: >64 µg/mL

Question: And the “MIC 100%” value ([13]; Study ROC010)?
Answer: >64 µg/mL

Question: And the “MIC 100%” value ([13]; Study ROC012)?
Answer: >64 µg/mL

Question: And the GSH adduct [14]?
Answer: Clean

Question: Which results are given for `CN1C(=O)[C@H](CCCCN)NC(=O)[C@H](CCCN)NCc2cccnc2Sc2cccc(-c3ccc(C(=O)O)cc3)c2CNC(=O)[C@@H]1Cc1c[nH]c2ccccc12` [zosurabalpin]?
Answer: inhibition at 10 µM [1]: 2%; inhibition at 10 µM [2]: 10%; percent inhibition [3]: 16%; inhibition at 10 µM [4]: 13%; inhibition at 10 µM [5]: -1%; inhibition at 10 µM [6]: -7%; inhibition at 10 µM [7]: 2%; inhibition at 10 µM [8]: 12%; inhibition at 10 µM [9]: 9%; inhibition at 10 µM [10]: -16%; percent inhibition [11]: -1%; RO7223280 MIC 100% ([12]; Study LGC296813): >64 µg/mL; RO7223280 MIC 100% ([12]; Study LGC299544): >64 µg/mL; RO7223280 MIC 100% ([12]; Study LGC308175): >64 µg/mL; MIC ([12]; ATCC700603): > 64 µg/mL; RO7223280 MIC 100% ([13]; Study LGC296813): >64 µg/mL; RO7223280 MIC 100% ([13]; Study LGC299544): >64 µg/mL; RO7223280 MIC 100% ([13]; Study LGC308175): >64 µg/mL; MIC ([13]; ATCC27853): > 64 µg/mL; GSH adduct [14]: Clean

Reference: paper PMC10794144, “A novel antibiotic class targeting the lipopolysaccharide transporter” (Nature, 2024)
